Reference: patent US8273771B2, “Ischemic disorder or disease inhibitors” (Pronas Pharma AB, priority 2007, dated 2012)
Like-named read-outs stand apart in the source and are kept apart here.

What was measured:
rats with induced SAH = assay: Cortical blood flow measured with Laser Doppler; assay type: in vivo, rat; conditions: intracisternal injection
Source text: Subarachnoid hemorrhage was induced by a model originally devised by Svendgaard et al and carefully described by Prunell et al (2003). Male Sprague-Dawley rats (350-400 g) were anaesthetized using 5% halothane (Halocarbon Laboratories, River Edge, N.J.) in N2O/O2 (30:70). The rat was intubated and artificially ventilated with inhalation of 0.5-1.5% halothane in N2O/O2 (70:30) during the surgical procedure. The depth of anaesthesia was carefully monitored and the respiration checked by regularly withdrawing arterial blood samples for blood gas analysis (Radiometer, Copenhagen, Denmark). An electric temperature probe was inserted into the rectum of the rat to record the temperature, which was maintained at 37° C. An arterial catheter to measure blood pressure was placed in the tail artery and a catheter to monitor intracranial pressure (ICP) was placed in the subarachnoid space under the subocciptal membrane. At either side of the skull, 3 mm from the midline and 4 mm anteriorly from the bregma, holes were drilled through the skull bone down to dura mater (without perforation) allowing the placement of two laser-Doppler flow probes to measure cortical CBF. Finally, a 27G blunt canula with side hole was introduced 6.5 mm anterior to bregma in the midline at an angle of 30° to the vertical. […]

[1] = test system: MCA from rats with induced SAH; assay: Myograph contractile response to Ang II (via AT1) in cerebral arteries of treated SAH rats; assay type: in vivo, rat; conditions: in presence of PD123319, compared to SAH rats, no significant difference to sham
Experimental: The brains were quickly removed and chilled in ice-cold bicarbonate buffer solution (see composition below). Under a dissection microscope, the middle cerebral artery (MCA), the basilar artery (BA) and circle of Willis were carefully dissected free from the brain and cleared of connective tissue. The MCA and BA were immediately mounted in myographs for in vitro pharmacology or snap frozen at -80° C. and examined by real-time PCR. […] Measurements were recorded on a computer by use of a PowerLab unit (ADInstruments). […] The contractile capacity was determined by exposing the vessels to an isotonic solution containing 63.5 mM of K+, obtained by partial change of NaCl for KCl in the above buffer. […] Data are expressed as mean±standard error of the mean (s.e.m.), and n refers to the number of rats. […] In vitro Pharmacology Contractile responses in each segment are expressed as percentage of the 63.5 mM K+ induced contraction. […]

[2] = test system: rats after MCA occlusion and reperfusion; conditions: for brain damage (% of total volume): control 24.8±2%; for oedema (% of total volume): control 1.01±0.03
Experimental: This group of animals went through the same procedure as the above-mentioned SAH animals. Two hours after the MCA occlusion, the rat was re-anesthetized to allow for withdrawal of the filament and subsequent reperfusion of the brain. In conjunction with the reperfusion (0 h), at 6 h or at 12 h afterwards, and at 24 h after the start of the reperfusion in the same animal, the rats were injected intraperitoneal with 30 mg/kg U0126 dissolved in dimethylsulfoxide (DMSO). […] Control rats were injected with an equal volume of DMSO at the same time points.

Cn1cc(C2=C(c3cn(CCCN)c4ccccc34)C(=O)NC2=O)c2ccccc21 [RO-31-7549]
effect of injection alone on cortical blood flow measured with Laser Doppler (rats with induced SAH): no effect

Oc1cc(-c2nc(-c3ccccc3)[nH]c2-c2ccncc2)ccc1Cl [SB386023-b]
Ang II induced contractile response [1]: significantly attenuated

N#CC(=C(/N)Sc1ccccc1N)/C(C#N)=C(\N)Sc1ccccc1N [U0126]
brain damage (% of total volume) ([2]; 30 mg/kg i.p. starting after 12 h): 20.3±1% | brain damage (% of total volume) ([2]; 30 mg/kg i.p. starting at 0 h after MCAO reperfusion): 11.8±2% | brain damage (% of total volume) ([2]; 30 mg/kg i.p. starting at 6 h): 14.6±3% | lowest dose that elicited a clear significant effect on infarct volume ([2]; intraperitoneal, doses 10 to 100 mg/kg evaluated, preliminary experiments): 30 mg/kg | oedema (% of total volume) ([2]; treatment starting at 0 h): 1.05±0.02 % of total volume | oedema (% of total volume) ([2]; treatment starting at 6 h): 0.98±0.02 % of total volume | oedema (% of total volume) ([2]; treatment starting at 12 h): 1.02±0.04 % of total volume
